Patent US20170114070A1, “INHIBITORS OF THE WNT SIGNALLING PATHWAYS” (Bayer Pharma Aktiengesellschaft, priority 2014, published 2017)

Columns and labels:
[1] = tested on: HCT116 FOPFlash (FOP control vector, non-functional TCF elements); assay: Cellular control reporter assay, HCT116 FOP control vector; format: cell-based; conditions: Homo sapiens, HCT-116; HCT116 stably transfected with FOP control vector; 36 hours incubation; luciferase expression; dilution series from 50 μM
Procedure: (§1) In a parallel approach, HCT116 cells were cotransfected with the FOP control vector and pcDNA3. The FOP vector is identical to the TOP construct, but it contains instead of functional TCF elements a randomized, non-functional sequence. For this transfection a stable transfected cell line was generated as well.
(§2) In preparation of the assay, the two cell lines were plated 24 hours before at 10000 cells per well of a 384 micro titre plate (MTP) in 30 μL growth medium. Selective inhibitory activity for small molecules on the mutated Wnt pathway was determined after parallel incubation of both (TOP and FOP) HCT116 reporter cell lines with a compound dilution series from 50 μM to 15 nM in steps of 3.16-fold dilutions in CAFTY buffer (130 mM NaCl, 5 mM KCl, 20 mM HEPES, 1 mM MgCl2, 5 mM NaHCO3, pH 7.4) containing 2 mM Ca^2+ and 0.01% BSA. The compounds were thereby serially prediluted in 100% DMSO and thereafter in addition 50 fold into the CAFTY compound dilution buffer (described above). From this dilution 10 μL were added to the cells in 30 μL growth medium and incubated for 36 hours at 37° C. and 5% CO2. Thereafter luciferase assay buffer (1:1 mixture of luciferase substrate buffer (20 mM Tricine, 2.67 mM MgSO4, 0.1 mM EDTA, 4 mM DTT, 270 μM Coenzyme A, 470 μM Luciferin, 530 μM ATP, ph adjusted to pH 7.8 with a sufficient volume of 5M NaOH) and Triton buffer (30 mL Triton X-100, 115 mL glycerol, 308 mg Dithiothreitol, 4.45 g Na2HPO4.2H2O, 3.03 g TRIS HCl, ad 1 l H20, pH 7.8) was added as equal volume to the compound solution on the cells to determine luciferase expression as a measure of Wnt signaling activity in a luminometer.

[2] = tested on: constitutive active Wnt pathway (HCT116 TOPFlash); assay: Cellular reporter assay, HCT116 Super TopFlash (constitutive active Wnt pathway); format: cell-based; conditions: Homo sapiens, HCT-116; HCT116 stably transfected with Super TopFlash vector; 36 hours incubation; luciferase expression
Procedure: In order to discover and characterize small molecules which inhibit the constitutive active colorectal cancer cell (CRC) Wnt pathway, a cellular reporter assay was employed. The corresponding assay cell was generated by transfection of the colorectal cancer cell line HCT116 (ATCC, #CCL-247) with the Super TopFlash vector (Morin, Science 275, 1997, 1787-1790; Molenaar et al., Cell 86 (3), 1996, 391-399). The HCT116 cell line is cultivated at 37° C. and 5% CO2 in DMEM/F-12 (Life Technologies, #11320-074), supplemented with 2 mM glutamine, 20 mM HEPES, 1.4 mM pyruvate, 0.15% Na-bicarbonate and 10% foetal bovine serum (GIBCO, #10270), this cancer cell line is pathophysiological relevant since it carries a deletion of position S45 in the β-catenin gene, leading to constitutive active Wnt signaling. Stable transfectants were generated by cotransfection with pcDNA3 and selection of stable transfected cells with 1 mg/ml G418.
as §1, §2

Row | IC50 [1] [µM] | IC50 [2] [µM] | Structure (SMILES)
1 | ≥ 50 | 0.082 | Cc1ccncc1-c1cnc(NC(=O)c2ccc(OC(F)(F)F)c(NC(=O)CN3CCN(C)CC3)c2)cn1 [Example 30, 3-{[(4-methylpiperazin-1-yl)acetyl]amino}-N-[5-(4-methylpyridin-3-yl)pyrazin-2-yl]-4-(trifluoromethoxy)benzamide]
2 | ≥ 50 | 16.9 | O=C(CN1CCOCC1)Nc1cc(C(=O)Nc2cnc(-c3ccccn3)cn2)ccc1OC1CC1 [Example 50, 4-(cyclopropyloxy)-3-[(morpholin-4-ylacetyl)amino]-N-[5-(pyridin-2-yl)pyrazin-2-yl]benzamide]
3 | ≥ 50 | 0.0297 | CN1CCN(CC(=O)Nc2cc(C(=O)Nc3ccc(-c4ccccc4)nn3)ccc2OC(F)(F)F)CC1 [Example 9, 3-{[(4-methylpiperazin-1-yl)acetyl]amino}-N-(6-phenylpyridazin-3-yl)-4-(trifluoromethoxy)benzamide]
4 | 23.1 | 4.62 | O=C(CN1CCOCC1)Nc1cc(C(=O)Nc2cnc(-c3ccccc3F)cn2)ccc1OC(F)(F)F [Example 25, N-[5-(2-fluorophenyl)pyrazin-2-yl]-3-[(morpholin-4-ylacetyl)amino]-4-(trifluoromethoxy)benzamide]
5 | 20 | 0.016 | CN1CCN(CC(=O)Nc2cc(C(=O)Nc3ncc(-c4ccccc4)nn3)ccc2OC(F)(F)F)CC1 [Example 18, 3-{[(4-methylpiperazin-1-yl)acetyl]amino}-N-(6-phenyl-1,2,4-triazin-3-yl)-4-(trifluoromethoxy)benzamide]
6 | ≥ 50 | 0.162 | CN1CCN(CC(=O)Nc2cc(C(=O)Nc3ccc(-c4cncnc4)nn3)ccc2OC(F)(F)F)CC1 [Example 2, 3-{[(4-methylpiperazin-1-yl)acetyl]amino}-N-[6-(pyrimidin-5-yl)pyridazin-3-yl]-4-(trifluoromethoxy)benzamide]
7 | ≥ 50 | 0.058 | O=C(CN1CCOCC1)Nc1cc(C(=O)Nc2cnc(-c3cncnc3)cn2)ccc1OC(F)(F)F [Example 26, 3-[(morpholin-4-ylacetyl)amino]-N-[5-(pyrimidin-5-yl)pyrazin-2-yl]-4-(trifluoromethoxy)benzamide]
8 | ≥ 50 | 0.636 | O=C(CN1CCOCC1)Nc1cc(C(=O)Nc2ccc(-c3cncnc3)nn2)ccc1OC(F)(F)F [Example 15, 3-[(morpholin-4-ylacetyl)amino]-N-[6-(pyrimidin-5-yl)pyridazin-3-yl]-4-(trifluoromethoxy)benzamide]
9 | ≥ 50 | 2 | CN1CCN(CC(=O)Nc2cc(C(=O)Nc3cnc(-c4ccnc(N)c4)cn3)ccc2OC(F)(F)F)CC1 [Example 56, N-[5-(2-aminopyridin-4-yl)pyrazin-2-yl]-3-{[(4-methylpiperazin-1-yl)acetyl]amino}-4-(trifluoromethoxy)benzamide]
10 | 26.2 | 17.2 | Nc1cc(-c2cnc(NC(=O)c3ccc(OC(F)(F)F)c(NC(=O)CN4CCOCC4)c3)cn2)ccn1 [Example 55, N-[5-(2-aminopyridin-4-yl)pyrazin-2-yl]-3-[(morpholin-4-ylacetyl)amino]-4-(trifluoromethoxy)benzamide]
11 | ≥ 50 | 0.205 | O=C(CN1CCN(CC(F)F)CC1)Nc1cc(C(=O)Nc2ccc(-c3ccccc3)nn2)ccc1OC(F)(F)F [Example 5, 3-({[4-(2,2-difluoroethyl)piperazin-1-yl]acetyl}amino)-N-(6-phenylpyridazin-3-yl)-4-(trifluoromethoxy)benzamide]
12 | ≥ 50 | 0.0144 | O=C(Nc1cnc(-c2ccccc2)cn1)c1ccc(OC(F)(F)F)c(NC(=O)C2(N3CCOCC3)CC2)c1 [Example 20, 3-({[1-(morpholin-4-yl)cyclopropyl]carbonyl}amino)-N-(5-phenylpyrazin-2-yl)-4-(trifluoromethoxy)benzamide]
13 | ≥ 50 | 0.123 | O=C(CN1CCOCC1)Nc1cc(C(=O)Nc2cnc(-c3ccccc3)cn2)ccc1OC1CC1 [Example 38, 4-(cyclopropyloxy)-3-[(morpholin-4-ylacetyl)amino]-N-(5-phenylpyrazin-2-yl)benzamide]
14 | ≥ 50 | 0.0175 | CN1CCN(CC(=O)Nc2cc(C(=O)Nc3ccc(-c4cccnc4)nn3)ccc2OC(F)(F)F)CC1 [Example 4, 3-{[(4-methylpiperazin-1-yl)acetyl]amino}-N-[6-(pyridin-3-yl)pyridazin-3-yl]-4-(trifluoromethoxy)benzamide]
15 | ≥ 50 | 2.9 | Cc1cccc(F)c1-c1cnc(NC(=O)c2ccc(OC(F)(F)F)c(NC(=O)CN3CCOCC3)c2)cn1 [Example 58, N-[5-(2-fluoro-6-methylphenyl)pyrazin-2-yl]-3-[(morpholin-4-ylacetyl)amino]-4-(trifluoromethoxy)benzamide]
16 | ≥ 50 | 1.35 | CN1CCN(CC(=O)Nc2cc(C(=O)Nc3cnc(-c4cnccn4)cn3)ccc2OC(F)(F)F)CC1 [Example 54, N-(2,2′-bipyrazin-5-yl)-3-{[(4-methylpiperazin-1-yl)acetyl]amino}-4-(trifluoromethoxy)benzamide]
17 | 7.73 | 0.26 | CN1CCN(CC(=O)Nc2cc(C(=O)Nc3cnc(-c4cccc(Cl)c4)cn3)ccc2OC(F)(F)F)CC1 [Example 48, N-[5-(3-chlorophenyl)pyrazin-2-yl]-3-{[(4-methylpiperazin-1-yl)acetyl]amino}-4-(trifluoromethoxy)benzamide]
18 | ≥ 50 | 16.8 | CN1CCN(CC(=O)Nc2cc(C(=O)Nc3cnc(-c4ccccc4Cl)cn3)ccc2OC(F)(F)F)CC1 [Example 44, N-[5-(2-chlorophenyl)pyrazin-2-yl]-3-{[(4-methylpiperazin-1-yl)acetyl]amino}-4-(trifluoromethoxy)benzamide]
19 | ≥ 50 | 16.7 | Cc1cccc(F)c1-c1cnc(NC(=O)c2ccc(OC(F)(F)F)c(NC(=O)CN3CCN(C)CC3)c2)cn1 [Example 29, N-[5-(2-fluoro-6-methylphenyl)pyrazin-2-yl]-3-{[(4-methylpiperazin-1-yl)acetyl]amino}-4-(trifluoromethoxy)benzamide]
20 | ≥ 50 | 0.12 | CN1CCN(CC(=O)Nc2cc(C(=O)Nc3ccc(-c4cccnc4F)nn3)ccc2OC(F)(F)F)CC1 [Example 12, N-[6-(2-fluoropyridin-3-yl)pyridazin-3-yl]-3-{[(4-methylpiperazin-1-yl)acetyl]amino}-4-(trifluoromethoxy)benzamide]
21 | ≥ 50 | 0.0248 | CN1CCN(CC(=O)Nc2cc(C(=O)Nc3ccc(-c4ccc(N)nc4)nn3)ccc2OC(F)(F)F)CC1 [Example 1, N-[6-(6-aminopyridin-3-yl)pyridazin-3-yl]-3-{[(4-methylpiperazin-1-yl)acetyl]amino}-4-(trifluoromethoxy)benzamide]
22 | 40 | 16.7 | Cc1cccc(-c2cnc(NC(=O)c3ccc(OC(F)(F)F)c(NC(=O)CN4CCN(C)CC4)c3)cn2)c1 [Example 32, N-[5-(3-methylphenyl)pyrazin-2-yl]-3-{[(4-methylpiperazin-1-yl)acetyl]amino}-4-(trifluoromethoxy)benzamide]
23 | 44.7 | 0.372 | O=C(CN1CCOCC1)Nc1cc(C(=O)Nc2cnc(-c3cnccn3)cn2)ccc1OC1CC1 [Example 52, N-(2,2′-bipyrazin-5-yl)-4-(cyclopropyloxy)-3-[(morpholin-4-ylacetyl)amino]benzamide]
